“Also recorded” adds a separate entry of the source.
What was measured:
[1] = cited from earlier work
[2] = test system: reelin in Entorhinal Cortex (EC2); assay: reelin mRNA in situ hybridization in entorhinal cortex after 4-week levetiracetam; type: in vivo, rat; conditions: 10 mg/kg/day, osmotic minipumps, 28 days; vs AI-VEH t(13)=2.386, p=0.033
Experimental: Under isoflurane anesthesia, memory-impaired aged rats are implanted subcutaneously in the intrascapular region with osmotic mini-pumps (ALZET,
Durect Corporation, Cupertino, Calif.) with levetiracetam (10 mg/kg/day) or saline vehicle for four weeks prior to perfusion. Young rats, which served as controls, receive either saline vehicle in mini-pumps or no implantation.
At the end of the 4-week treatment period, rats are anesthetized with isoflurane and perfused transcardiacally with 0.1 M phosphate buffer saline, followed by 4% paraformaldehyde in phosphate buffer. Brains are removed and post-fixed in paraformaldehyde overnight. The brains are then moved into 4% paraformaldehyde in phosphate buffer containing 16% sucrose. […]
Probe templates are synthesized as described in Haberman et al. (2008). […] The final probe is resuspended in RNase-free water and the specific activity is determined by scintillation counter.
In situ hybridization is carried out as described by Haberman et al., (2008). […] Slides are dried overnight, exposed to a phosphoimager screen, and quantified by using ImageQuant (GE Healthcare). Digital images are acquired of entorhinal cortical sections from the same levels for all animals and the subregion of interest is outlined and quantified. […]

[3] = test system: DG/CA3 region of aMCI subjects; assay: fMRI activity in DG/CA3 during lure stimuli correctly identified as similar; type: in vivo, human
Experimental: A within-subjects trial of 8 weeks duration, involving 17 amnestic MCI (aMCI) subjects and 17 age-matched controls with a low dose treatment of levetiracetam is conducted. […] Cognitive testing and fMRI imaging data are obtained from the subjects after each two week period of drug/placebo treatment. […] The […]

SMILES: CC[C@@H](C(N)=O)N1CCCC1=O [levetiracetam, (2S)-2-(2-oxopyrrolidin-1-yl) butanamide]
- plasma half-life expected in elderly ([1]; elderly, decreased renal function): 9 to 10 h
- time of peak plasma concentrations ([1]; following oral administration): about 1 hour
- plasma half-life ([1]; humans): approximately 7±1 hour
- time to steady state ([1]; multiple twice-daily dosing): 2 days
- absorption after oral administration ([1]; oral): rapidly and almost completely absorbed
- effect of food on bioavailability ([1]; oral): not affected by food
- levels of reelin (mRNA expression) in Entorhinal Cortex (EC2) [2]: restores the levels of reelin; also recorded: significantly increases the expression of reelin; also recorded: restores reelin in Entorhinal Cortex (EC2)
- DG/CA3 hyperactivity (fMRI mean activity) ([3]; 125 mg twice a day for two weeks vs placebo, p=0.037): reduces DG/CA3 hyper-activity
- DG/CA3 hyperactivity (fMRI mean activity) ([3]; 250 mg BID for two weeks vs placebo, N=17): does not significantly reduce; also recorded: No such improvement is observed

Source: patent publication US10154988B2, “Methods and compositions for treating schizophrenia” (The Johns Hopkins University, priority 2012, dated 2018)
